According to ChEMBL document CHEMBL5236588 (J Med Chem, 2022):
Residues, ends and D or L forms follow the SMILES beside them.

Experiments:
[1] = Inhibition of human FXIIa
[2] = Inhibition of FXIIa (unknown origin) using Ac-QRFR-pNA as substrate measured at 30 sec interval by microplate reader assay; set-up: species or system Homo sapiens
[3] = Stability of compound in human serum at 50 uM incubated for 24 hrs by reversed phase HPLC analysis; type: ADME, cell-free
Plasminogen = Plasminogen (Homo sapiens, UniProt P00747); test: Inhibition of human plasmin using Ac-RM(O2)YR-pNA as substrate
Plasminogen, sequence (P00747 97-580 limits assumed): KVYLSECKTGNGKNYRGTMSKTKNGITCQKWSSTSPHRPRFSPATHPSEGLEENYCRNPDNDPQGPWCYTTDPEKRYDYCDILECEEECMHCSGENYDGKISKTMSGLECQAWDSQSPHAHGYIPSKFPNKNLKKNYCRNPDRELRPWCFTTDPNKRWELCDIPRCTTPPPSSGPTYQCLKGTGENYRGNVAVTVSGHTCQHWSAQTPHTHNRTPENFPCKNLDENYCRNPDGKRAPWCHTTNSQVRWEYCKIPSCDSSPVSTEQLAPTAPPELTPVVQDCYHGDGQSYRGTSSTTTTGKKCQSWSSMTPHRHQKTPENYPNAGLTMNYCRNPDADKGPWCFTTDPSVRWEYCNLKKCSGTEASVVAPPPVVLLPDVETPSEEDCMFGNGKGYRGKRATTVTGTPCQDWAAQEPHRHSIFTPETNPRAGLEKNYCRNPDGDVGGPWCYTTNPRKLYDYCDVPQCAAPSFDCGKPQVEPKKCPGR
Plasminogen, sequence (P00747 581-810 limits assumed): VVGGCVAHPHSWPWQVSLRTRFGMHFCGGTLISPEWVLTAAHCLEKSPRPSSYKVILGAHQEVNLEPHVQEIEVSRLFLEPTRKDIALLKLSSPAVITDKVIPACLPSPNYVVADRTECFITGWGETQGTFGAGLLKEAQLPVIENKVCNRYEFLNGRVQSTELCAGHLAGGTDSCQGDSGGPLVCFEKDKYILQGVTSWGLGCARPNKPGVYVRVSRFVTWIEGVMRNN

[4] = Inhibition of human cationic trypsin using Boc-VPR-MCA as susbtrate
[5] = Inhibition of human FXa using Z-Pyr-GR-MCA as substrate
[6] = Stability of compound in human serum at 50 uM incubated for 8 hrs by reversed phase HPLC analysis; type: ADME, cell-free; conditions: read-out: Stability
[7] = Inhibition of human beta-FIXa using Boc-QGR-MCA as substrate
[8] = Inhibition of human FXIa using Boc-Glu(OBzl)-AR-MCA as substrate
Plasma kallikrein = Plasma kallikrein (Homo sapiens, UniProt P03952); test: Inhibition of human plasma kallikrein using Z-FR-MCA as substrate; type: cell-free
Plasma kallikrein, sequence (P03952 20-390 limits assumed): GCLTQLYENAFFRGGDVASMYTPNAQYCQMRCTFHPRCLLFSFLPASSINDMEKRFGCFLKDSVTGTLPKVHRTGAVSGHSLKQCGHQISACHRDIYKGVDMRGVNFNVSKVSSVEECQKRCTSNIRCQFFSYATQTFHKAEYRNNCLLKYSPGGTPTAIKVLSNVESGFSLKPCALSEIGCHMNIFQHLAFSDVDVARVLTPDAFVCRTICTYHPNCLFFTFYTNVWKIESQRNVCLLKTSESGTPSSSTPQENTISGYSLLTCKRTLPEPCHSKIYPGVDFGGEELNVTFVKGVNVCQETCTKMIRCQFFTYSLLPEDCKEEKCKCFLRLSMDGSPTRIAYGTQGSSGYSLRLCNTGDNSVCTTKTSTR
Plasma kallikrein, sequence (P03952 391-638 limits assumed): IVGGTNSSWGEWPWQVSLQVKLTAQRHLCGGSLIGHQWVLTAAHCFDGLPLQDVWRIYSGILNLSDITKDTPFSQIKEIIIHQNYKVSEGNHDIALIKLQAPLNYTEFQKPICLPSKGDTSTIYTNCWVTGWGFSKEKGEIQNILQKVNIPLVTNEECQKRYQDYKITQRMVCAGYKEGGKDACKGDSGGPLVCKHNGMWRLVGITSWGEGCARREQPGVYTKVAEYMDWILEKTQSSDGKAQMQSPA

[9] = molecular target: T1, Suppressor of tumorigenicity 14 protein (Homo sapiens, UniProt Q9Y5Y6); test: Inhibition of recombinant human matriptase using Boc-QAR-MCA as substrate
T1 sequence (Q9Y5Y6 whole entry): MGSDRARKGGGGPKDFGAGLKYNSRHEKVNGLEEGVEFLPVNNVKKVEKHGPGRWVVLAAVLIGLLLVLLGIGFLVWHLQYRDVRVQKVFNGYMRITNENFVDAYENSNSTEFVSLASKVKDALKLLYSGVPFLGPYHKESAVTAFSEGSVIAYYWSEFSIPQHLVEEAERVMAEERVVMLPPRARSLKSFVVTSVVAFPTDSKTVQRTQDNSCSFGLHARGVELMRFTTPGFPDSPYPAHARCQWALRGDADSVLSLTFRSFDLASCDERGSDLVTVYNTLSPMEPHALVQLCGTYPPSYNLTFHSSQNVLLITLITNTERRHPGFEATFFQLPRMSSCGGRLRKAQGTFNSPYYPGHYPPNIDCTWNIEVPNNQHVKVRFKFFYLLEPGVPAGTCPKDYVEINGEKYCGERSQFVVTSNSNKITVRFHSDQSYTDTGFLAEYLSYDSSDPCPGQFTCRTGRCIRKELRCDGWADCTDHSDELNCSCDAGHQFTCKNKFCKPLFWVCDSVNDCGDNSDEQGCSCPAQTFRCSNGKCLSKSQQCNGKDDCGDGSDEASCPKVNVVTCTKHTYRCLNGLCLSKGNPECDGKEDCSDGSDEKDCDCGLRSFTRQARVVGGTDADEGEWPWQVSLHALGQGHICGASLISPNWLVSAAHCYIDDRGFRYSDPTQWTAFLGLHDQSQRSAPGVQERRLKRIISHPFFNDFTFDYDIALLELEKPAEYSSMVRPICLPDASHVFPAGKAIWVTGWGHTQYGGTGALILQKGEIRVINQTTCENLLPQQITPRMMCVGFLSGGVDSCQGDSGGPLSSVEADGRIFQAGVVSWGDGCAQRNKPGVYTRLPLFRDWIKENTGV

Homo sapiens = organism: Homo sapiens; test: Anticoagulant activity in human plasma assessed as prolongation of activated partial thromboplastin time by measuring concentration required to double aPTT; type: functional

Compound	Ki [2] [nM]	Stability [3]	Ki (Plasminogen) [nM]	Ki [4] [nM]	IC50 [5] [nM]	IC50 [7] [nM]	IC50 [8] [nM]	IC50 (Plasma kallikrein) [nM]	Ki [9] [nM]	also measured
CC(C)C[C@@H]1NC(=O)[C@H](CCC(N)=O)NC(=O)[C@H](Cc2c[nH]cn2)NC(=O)[C@@H]2CSCCC(=O)N3CN(CN(C3)C(=O)CCSC[C@H](NC(=O)[C@@H](CO)NC(=O)[C@H](N)CCCNC(=N)N)C(=O)N[C@@H](Cc3ccc(F)cc3)C(=O)N[C@@H](CCCNC(=N)N)C(=O)N[C@@H](CC(C)C)C(=O)N3CCC[C@H]3C(=O)N2)C(=O)CCSC[C@@H](C(=O)O)NC(=O)C[C@H](CCCNC(=N)N)NC1=O										Ki [1]: 0.37 nM
CC[C@H](C)[C@@H]1NC(=O)[C@@H]2CSSC[C@@H]3NC(=O)[C@H](CCC(N)=O)NC(=O)CNC(=O)CNC(=O)[C@H](CC(=O)O)NC(=O)[C@H](CO)NC(=O)CNC(=O)[C@H](CO)NC(=O)CNC(=O)[C@@H]4CSSC[C@H](NC(=O)[C@H](CC(=O)O)NC(=O)[C@H](CO)NC(=O)[C@H](CC(=O)O)NC(=O)[C@H](CCCNC(=N)N)NC(=O)[C@H](CCCNC(=N)N)NC(=O)[C@H](CSSC[C@H](NC1=O)C(=O)N[C@@H](CCCNC(=N)N)C(=O)NCC(=O)N[C@@H](CC(N)=O)C(=O)NCC(=O)N[C@@H](Cc1ccc(O)cc1)C(=O)N4)NC(=O)[C@H](CCCCN)NC(=O)[C@H](CCCCN)NC(=O)[C@H](CC(C)C)NC(=O)[C@H]([C@@H](C)CC)NC(=O)[C@H](CCCNC(=N)N)NC(=O)[C@H](Cc1ccccc1)NC3=O)C(=O)N1CCC[C@H]1C(=O)NCC(=O)N[C@@H](C)C(=O)N2 (HELM PEPTIDE1{A.C.I.C.R.G.N.G.Y.C.G.S.G.S.D.G.G.Q.C.F.R.I.L.K.K.C.R.R.D.S.D.C.P.G}$PEPTIDE1,PEPTIDE1,2:R3-19:R3|PEPTIDE1,PEPTIDE1,4:R3-26:R3|PEPTIDE1,PEPTIDE1,10:R3-32:R3|PEPTIDE1,PEPTIDE1,1:R1-34:R2$$$V2.0)	193	Stable								
CC[C@H](C)[C@@H]1NC(=O)[C@@H]2CSSC[C@H](NC(=O)[C@H](CCC(N)=O)NC(=O)CNC(=O)CN)C(=O)N[C@@H](Cc3ccccc3)C(=O)N[C@@H](CCCNC(=N)N)C(=O)N[C@@H]([C@@H](C)CC)C(=O)N[C@@H](CC(C)C)C(=O)N[C@@H](CCCCN)C(=O)N[C@@H](CCCCN)C(=O)N[C@H]3CSSC[C@H](NC1=O)C(=O)N[C@@H](CCCNC(=N)N)C(=O)NCC(=O)N[C@@H](CC(N)=O)C(=O)NCC(=O)N[C@@H](Cc1ccc(O)cc1)C(=O)N[C@H](C(=O)NCC(=O)N[C@@H](CO)C(=O)O)CSSC[C@H](NC(=O)[C@H](CC(=O)O)NC(=O)[C@H](CO)NC(=O)[C@H](CC(=O)O)NC(=O)[C@H](CCCNC(=N)N)NC(=O)[C@H](CCCNC(=N)N)NC3=O)C(=O)N1CCC[C@H]1C(=O)NCC(=O)N[C@@H](C)C(=O)N2 (HELM PEPTIDE1{G.G.Q.C.F.R.I.L.K.K.C.R.R.D.S.D.C.P.G.A.C.I.C.R.G.N.G.Y.C.G.S}$PEPTIDE1,PEPTIDE1,4:R3-21:R3|PEPTIDE1,PEPTIDE1,11:R3-23:R3|PEPTIDE1,PEPTIDE1,17:R3-29:R3$$$V2.0)	25		283	157	> 5000					
CC[C@H](C)[C@@H]1NC(=O)[C@H](CCCNC(=N)N)NC(=O)[C@H](Cc2ccccc2)NC(=O)[C@@H](NC(=O)[C@H](CCCNC(=N)N)NC(=O)CNC(=O)CN)CSSC[C@@H]2NC(=O)[C@H](C)NC(=O)CNC(=O)[C@@H]3CCCN3C(=O)[C@@H]3CSSC[C@@H](C(=O)NCC(=O)N[C@@H](CO)C(=O)O)NC(=O)[C@H](Cc4ccc(O)cc4)NC(=O)CNC(=O)[C@H](CC(N)=O)NC(=O)CNC(=O)[C@H](CCCNC(=N)N)NC(=O)[C@H](CSSC[C@H](NC(=O)[C@H](CCCCN)NC(=O)[C@H](CCCCN)NC(=O)CNC1=O)C(=O)N[C@@H](CCCNC(=N)N)C(=O)N[C@@H](CCCNC(=N)N)C(=O)N[C@@H](CC(=O)O)C(=O)N[C@@H](CO)C(=O)N[C@@H](CC(=O)O)C(=O)N3)NC(=O)[C@H]([C@@H](C)CC)NC2=O (HELM PEPTIDE1{G.G.R.C.F.R.I.G.K.K.C.R.R.D.S.D.C.P.G.A.C.I.C.R.G.N.G.Y.C.G.S}$PEPTIDE1,PEPTIDE1,4:R3-21:R3|PEPTIDE1,PEPTIDE1,11:R3-23:R3|PEPTIDE1,PEPTIDE1,17:R3-29:R3$$$V2.0) [listing 2 of 2 here]										Activity (Homo sapiens): 2.5 µM

Second part, led by results:

Ki [2] [nM]	Stability [3]	Ki (Plasminogen) [nM]	Ki [4] [nM]	IC50 [5] [nM]	IC50 [7] [nM]	IC50 [8] [nM]	IC50 (Plasma kallikrein) [nM]	Ki [9] [nM]	Compound	also measured
2	Stable			> 5000	> 5000	> 5000	> 5000	1430	CC[C@H](C)[C@@H]1NC(=O)[C@H](CCCNC(=N)N)NC(=O)[C@H](Cc2ccccc2)NC(=O)[C@@H](NC(=O)[C@H](CCCNC(=N)N)NC(=O)CNC(=O)CN)CSSC[C@@H]2NC(=O)[C@H](C)NC(=O)CNC(=O)[C@@H]3CCCN3C(=O)[C@@H]3CSSC[C@@H](C(=O)NCC(=O)N[C@@H](CO)C(=O)O)NC(=O)[C@H](Cc4ccc(O)cc4)NC(=O)CNC(=O)[C@H](CC(N)=O)NC(=O)CNC(=O)[C@H](CCCNC(=N)N)NC(=O)[C@H](CSSC[C@H](NC(=O)[C@H](CCCCN)NC(=O)[C@H](CCCCN)NC(=O)CNC1=O)C(=O)N[C@@H](CCCNC(=N)N)C(=O)N[C@@H](CCCNC(=N)N)C(=O)N[C@@H](CC(=O)O)C(=O)N[C@@H](CO)C(=O)N[C@@H](CC(=O)O)C(=O)N3)NC(=O)[C@H]([C@@H](C)CC)NC2=O (HELM PEPTIDE1{G.G.R.C.F.R.I.G.K.K.C.R.R.D.S.D.C.P.G.A.C.I.C.R.G.N.G.Y.C.G.S}$PEPTIDE1,PEPTIDE1,4:R3-21:R3|PEPTIDE1,PEPTIDE1,11:R3-23:R3|PEPTIDE1,PEPTIDE1,17:R3-29:R3$$$V2.0) [listing 1 of 2 here]	IC50 (Plasminogen): > 5000 nM; IC50 [4]: > 5000 nM; remaining at 8 h, 50 µM [6]: 100%
3		86	275	> 5000	> 5000	> 5000	> 5000	30	CC[C@H](C)[C@@H]1NC(=O)[C@@H]2CSSC[C@H](NC(=O)[C@H](CCCNC(=N)N)NC(=O)CNC(=O)CN)C(=O)N[C@@H](Cc3ccccc3)C(=O)N[C@@H](CCCNC(=N)N)C(=O)N[C@@H]([C@@H](C)CC)C(=O)N[C@@H](CC(C)C)C(=O)N[C@@H](CCCCN)C(=O)N[C@@H](CCCCN)C(=O)N[C@H]3CSSC[C@H](NC1=O)C(=O)N[C@@H](CCCNC(=N)N)C(=O)NCC(=O)N[C@@H](CC(N)=O)C(=O)NCC(=O)N[C@@H](Cc1ccc(O)cc1)C(=O)N[C@H](C(=O)NCC(=O)N[C@@H](CO)C(=O)O)CSSC[C@H](NC(=O)[C@H](CC(=O)O)NC(=O)[C@H](CO)NC(=O)[C@H](CC(=O)O)NC(=O)[C@H](CCCNC(=N)N)NC(=O)[C@H](CCCNC(=N)N)NC3=O)C(=O)N1CCC[C@H]1C(=O)NCC(=O)N[C@@H](C)C(=O)N2 (HELM PEPTIDE1{G.G.R.C.F.R.I.L.K.K.C.R.R.D.S.D.C.P.G.A.C.I.C.R.G.N.G.Y.C.G.S}$PEPTIDE1,PEPTIDE1,4:R3-21:R3|PEPTIDE1,PEPTIDE1,11:R3-23:R3|PEPTIDE1,PEPTIDE1,17:R3-29:R3$$$V2.0)	
